Laboratory results reported in ChEMBL document CHEMBL4265957, “The development of piperidinones as potent MDM2-P53 protein-protein interaction inhibitors for cancer therapy” (Eur J Med Chem, 2018).

What was measured:
SJSA-1 = experiment: cells; conditions: Homo sapiens
[1] = target: E3 ubiquitin-protein ligase Mdm2 (Homo sapiens, UniProt Q00987); experiment: Inhibition of MDM2 (unknown origin)
E3 ubiquitin-protein ligase Mdm2, sequence (Q00987 whole entry): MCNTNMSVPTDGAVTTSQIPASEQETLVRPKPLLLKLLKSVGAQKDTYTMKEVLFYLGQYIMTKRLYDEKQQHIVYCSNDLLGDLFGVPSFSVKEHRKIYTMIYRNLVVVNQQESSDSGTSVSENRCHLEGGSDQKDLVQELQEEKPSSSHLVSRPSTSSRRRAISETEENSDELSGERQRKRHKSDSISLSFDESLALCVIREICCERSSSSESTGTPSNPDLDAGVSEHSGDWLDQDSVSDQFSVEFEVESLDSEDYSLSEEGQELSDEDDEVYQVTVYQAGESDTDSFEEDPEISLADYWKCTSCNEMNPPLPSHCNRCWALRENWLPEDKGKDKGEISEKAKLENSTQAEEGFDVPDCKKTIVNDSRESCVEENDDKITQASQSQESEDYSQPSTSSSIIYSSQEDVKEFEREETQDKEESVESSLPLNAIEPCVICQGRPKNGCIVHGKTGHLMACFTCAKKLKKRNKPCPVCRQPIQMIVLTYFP

IC50 (SJSA-1) [nM]	IC50 [1] [nM]	Compound
5		CN(C[C@H](C1CC1)N1C(=O)[C@@](C)(CC(=O)O)C[C@H](c2cccc(Cl)c2)[C@H]1c1ccc(Cl)cc1)S(=O)(=O)C1CC1
	5.57	CC1(C)CCC2(CC1)N[C@@H](C(=O)N[C@@H]1CC[C@@H](C(N)=O)OC1)[C@H](c1ccnc(Cl)c1F)[C@]21C(=O)Nc2cc(Cl)ccc21
	20	Nc1ccn([C@@H]2O[C@H](CO)[C@@H](O)[C@@H]2O)c(=O)n1 [CYTARABINE]
